Values quoted from earlier work, collected in paper PMC5612656, “In vitro and in vivo effects of 2,4 diaminoquinazoline inhibitors of the decapping scavenger enzyme DcpS: Context-specific modulation of SMN transcript levels” (PLoS ONE, 2017).

System: SMA Δ7 mice
Conditions: SMAΔ7 mice; cited from earlier work

## Nc1nc(N)c2c(OCC3CCN(Cc4c(Cl)cccc4Cl)CC3)cccc2n1 [RG3039]
  SMN protein or snRNP assembly: no detectable change
  full length and Δ7 SMN transcripts: modest but statistically significant elevations
